Data from patent US5183805A (Board of Regents, The University of Texas System, priority 1990, dated 1993).
Where two headings read alike, the source gives them in different places. Positions of bridges follow the written chain, without caps; N, C: chain ends. Residues, ends and D or L forms follow the SMILES beside them. No end group written: not given here.

Key:
[1] = Heath and Merrifield (1986); cited from earlier work
EGF receptor [2] = molecular target: T1, EGF receptor (Homo sapiens, UniProt P00533); experiment: Immune complex kinase assay of EGF-R immunoprecipitated from A431 cells, peptides added to the complexes, autophosphorylation measured; assay type: biochemical; set-up: endogenous in cells; host or cells: A431 epidermoid carcinoma cells (ATCC CRL 1555)
T1 sequence (P00533 25-1210): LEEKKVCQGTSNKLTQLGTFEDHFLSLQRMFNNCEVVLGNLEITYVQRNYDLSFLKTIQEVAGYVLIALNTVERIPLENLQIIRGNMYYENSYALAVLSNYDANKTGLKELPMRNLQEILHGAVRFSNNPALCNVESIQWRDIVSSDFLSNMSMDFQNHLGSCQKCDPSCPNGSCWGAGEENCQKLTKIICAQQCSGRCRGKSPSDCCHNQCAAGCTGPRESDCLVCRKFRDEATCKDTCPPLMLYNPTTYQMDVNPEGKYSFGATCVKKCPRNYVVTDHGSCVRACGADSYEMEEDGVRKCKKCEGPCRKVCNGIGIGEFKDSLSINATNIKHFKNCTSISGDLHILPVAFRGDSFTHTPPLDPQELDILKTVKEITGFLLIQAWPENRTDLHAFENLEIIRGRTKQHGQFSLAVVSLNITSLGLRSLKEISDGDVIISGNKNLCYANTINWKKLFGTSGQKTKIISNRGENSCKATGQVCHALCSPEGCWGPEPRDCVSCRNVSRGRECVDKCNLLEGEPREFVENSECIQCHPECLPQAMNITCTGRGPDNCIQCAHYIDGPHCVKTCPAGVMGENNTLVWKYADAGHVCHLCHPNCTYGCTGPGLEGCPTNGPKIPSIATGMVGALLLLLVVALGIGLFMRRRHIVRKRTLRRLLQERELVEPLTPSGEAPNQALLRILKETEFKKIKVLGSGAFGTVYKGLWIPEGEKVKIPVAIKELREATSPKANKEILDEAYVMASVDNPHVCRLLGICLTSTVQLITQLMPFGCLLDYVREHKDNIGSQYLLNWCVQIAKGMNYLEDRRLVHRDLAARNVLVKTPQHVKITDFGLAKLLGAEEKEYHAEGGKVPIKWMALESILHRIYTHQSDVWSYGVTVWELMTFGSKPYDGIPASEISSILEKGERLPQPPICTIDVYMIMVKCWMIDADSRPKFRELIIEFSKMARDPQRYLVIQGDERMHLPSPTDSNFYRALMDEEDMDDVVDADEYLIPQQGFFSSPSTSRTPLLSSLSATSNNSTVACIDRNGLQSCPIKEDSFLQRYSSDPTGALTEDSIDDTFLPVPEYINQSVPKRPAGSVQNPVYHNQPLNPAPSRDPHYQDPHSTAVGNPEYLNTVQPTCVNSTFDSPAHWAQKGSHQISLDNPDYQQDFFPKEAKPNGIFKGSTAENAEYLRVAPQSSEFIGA
Protocol: A431 cells at approximately 70-80% confluency were lysed in a detergent-containing (RIPA) buffer, and clarified by centrifuging at 10,000×g for 10 min. […] Immune complexes were harvested after 15 min. incubation with 50 μl Pansorbin. For kinase assays, complexes were washed in RIPA buffer, then resuspended in 50 μl 1 0.1% Triton X-100 in 20 mM HEPES, pH 7.0, with the addition of 100 μm sodium vanadate. After 10 min. incubation, kinase reaction was initiated by addition of 50 μl of 20 mM HEPES containing 10 μCi γ^-32p ATP. Reaction was allowed to proceed at 25° C. for 10 min., and terminated by addition of RIPA buffer.
This assay is very sensitive, and kinase activation is among the earliest events in mitogenesis.
Immune complexes were harvested with formalin fixed staphylococcus aureus Cowan Strain (Calbiochem). These complexes were then assayed for kinase activity in an immune complex kinase assay.
Selected peptides from Example 3 were employed in the study.

[3] = test system: ornithine decarboxylase (ODC) induction by EGF; experiment: Effect of peptide pretreatment on EGF-stimulated ODC induction in ME-180 cells; assay type: cell-based; details: 100-fold excess, 100 ng/ml peptide 30 min, then 10 ng/ml EGF 3 hours
Protocol: FIG. 4--Effect of synthetic peptide pretreatment on EGF-stimulated ODC induction in ME-180 cells. […] Cells are pelleted, sonicated in a buffer containing 25 mM NaPO4, 1mM DTT, 40 μM PLP, 0.1 mM EDTA, and centrifuged for 30 min. at 15,000 rpm at 4° C. Ornithine decarboxylase activity was determined on the supernatant by monitoring ^14 CO2 released from 0.5 μCi of I (^14 C) ornithine in a total ornithine concentration of 0.5 mM and a total volume of 0.2ml. P1--linear peptide and P2--cyclic peptide with phe at position 6; P3--linear peptide and P4--cyclic peptide with tyr at position 6.

EGF receptor [4] = molecular target: T1, EGF receptor; experiment: Summary statements on biological activity (receptor studies, parameters examined) compared with other EGF peptide analogs
Text: Relative biological activity of a peptide also may reflect the activity of the peptide in immune complex kinase assays, the ability to inhibit ornithine decarboxylase activity, mitogenic stimulation activity, ability to induce EGF-r phosphorylation in vivo and action in the phosphorylation of calpactin.

EGF-R = molecular target: T2, EGF-R (Homo sapiens, UniProt P00533); experiment: Kinetics of EGF-R kinase stimulation: peptide added to A431 cells, then immune complex kinase assay; assay type: cell-based; details: 20 ng/ml peptide, 37° C, very preliminary
T2 construct: endogenous in cells; host or cells: A431 epidermoid carcinoma cells (ATCC CRL 1555)
T2 sequence (P00533 25-1210): as above
Protocol: FIG. 1 - Kinetics of EGF-R stimulation by synthetic peptides. To semi-confluent A431 cells (grown in 0.1% FCS), indicated concentrations of cyclic (peptide A) or linear (peptide D) peptide with tyr at position 6 was added at a concentration of 20 ng/ml for 10 min at 37° C. Cells were harvested, lysed, EFG-R was immunoprecipitated, immune complex kinase assays were performed, and proteins resolved as described in FIG. 1. […] This figure compares preliminary kinetics of kinase stimulation after the addition of the active cyclic and less-active linear peptide to A431 cells. Immune complex kinase of EGF-r after addition of various biological response modifiers to A431 cells is shown.

A431 cells = experiment: Mitogenic stimulation / growth of A431 cells; assay type: cell-based; details: for effect on A431 cell growth: serum-free medium, counted after 72 hours
Protocol: FlG. […] Mitogenic Stimulation of A431 cells. […] The peptide analog 38A is the cyclic form of the peptide with native tyrosine. Cells were harvested 72 hours later and counted with the aid of a hemacytometer.
A431 cells are a malignant cell line in which the study of EGF-r has been well characterized. […] Over the range of peptide analog concentrations tested, no inhibition of A431 cell growth was observed.

EGF receptor [5] = molecular target: T1, EGF receptor; experiment: Inhibition of 125I-EGF binding to A431 cells (EGF receptor competition assay); set-up: endogenous in cells; host or cells: A431 epidermoid carcinoma cells (ATCC CRL 1555)
Protocol: FIG. 3--Inhibition of ^125 I-EGF binding by synthetic peptides. 1×10^5 A431 cells were plated in each well of a 24 well tissue culture plate, and allowed to grow for 48 o hours. Cells were rinsed 3 times in cold serum-free DMEM containing 0.1% BSA and 50 mM HEPES, pH 7.4, then incubated in this medium for 45 min. at 4° C. Subsequently, varying concentrations of peptide (or unlabeled EFG) was added, followed by 20,000 cpm ^125 I-EGF. After 2 hours incubation, medium is removed and cells are washed two times in PBS, then solubilized in 1 ml IN NaOH at 24° C. for 18 hours. Radioactivity in the solution is determined in a gamma counter. Peptide A--cyclic peptide with tyr at position 6; Peptide B--linear peptide with tyr at position 6; Peptide C --cyclic peptide with phe at position 6.
For this assay, cells were grown overnight in serum free media in microtiter wells, washed several times in PBS, then incubated for 2h with various concentrations of peptides. ^125 I-EGF was then added for 3o min, cells were extensively washed, and radioactivity was estimated in a gamma counter.

isolated "B" loop: synthetic peptide of the isolated B loop of EGF (residues 20-31), Heath and Merrifield (CMYIEALDKYAC; ends and bridges not checked; cysteine pairing not given here; UniProt P01133 990-1001, looked up, fragment)
activity relative to EGF [1]: 0.001%

CC[C@H](C)[C@H](NC(=O)[C@H](Cc1ccccc1)NC(=O)CNC(=O)[C@@H](NC(=O)[C@@H](NC(=O)[C@H](CS)NC(=O)[C@H](CC(N)=O)NC(C)=O)C(C)C)C(C)C)C(=O)NCC(=O)N[C@@H](CCC(=O)O)C(=O)N[C@@H](CCCNC(=N)N)C(=O)N[C@@H](CS)C(=O)N[C@@H](CCC(N)=O)C(=O)N[C@@H](Cc1ccc(O)cc1)C(=O)N[C@@H](CCCNC(=N)N)C(=O)N[C@@H](CC(=O)O)C(=O)N[C@@H](CC(C)C)C(=O)N[C@@H](CCCCN)C(N)=O [Peptide P1] (Ac-NCVVGFIGERCQYRDLK-NH2)
stimulation of EGF-receptor kinase activity (in words) (EGF receptor [2]): no activity

CC[C@H](C)[C@@H]1NC(=O)[C@H](Cc2ccc(O)cc2)NC(=O)CNC(=O)[C@H](C(C)C)NC(=O)[C@H](C(C)C)NC(=O)[C@@H](NC(=O)[C@H](CC(N)=O)NC(C)=O)CSSC[C@@H](C(=O)N[C@@H](CCC(N)=O)C(=O)N[C@@H](Cc2ccc(O)cc2)C(=O)N[C@@H](CCCNC(=N)N)C(=O)N[C@@H](CC(=O)O)C(=O)N[C@@H](CC(C)C)C(=O)N[C@@H](CCCCN)C(N)=O)NC(=O)[C@H](CCCNC(=N)N)NC(=O)[C@H](CCC(=O)O)NC(=O)CNC1=O [Peptide A] (Ac-NCVVGYIGERCQYRDLK-NH2; disulfide 2-11)
inhibition of ODC induction of EGF [3]: 50% | biological activity relative to any other EGF peptide analog so far synthesized (EGF receptor [4]; listed as cyclic form of this unsubstituted peptide): 100 fold | biological activity relative to any other EGF peptide analog so far synthesized (EGF receptor [4]; listed as cyclic peptide comprising the end of the B loop and the C loop): 100 fold | biological activity relative to any other EGF peptide analog so far synthesized (EGF receptor [4]; listed as natural tyrosine form of the cyclic peptide analog): > 100 fold | time of maximum stimulation of kinase activity (EGF-R): 15 min | effect on A431 cell growth (A431 cells; 0.1 ng/ml, listed as 38A): stimulated cell growth | effect on A431 cell growth (A431 cells; 0.1 ng/ml, listed as most biologically active cyclic peptide analog): stimulated these cells | effect of higher concentrations of EGF on A431 growth in the presence of peptide (A431 cells; 10 ng/ml peptide analog mixed with higher concentrations of EGF): no longer growth-inhibited | effect on A431 cell growth (A431 cells; 10 ng/ml, listed as 38A): stimulated cell growth | effect on A431 cell growth (A431 cells; 10 ng/ml, listed as most biologically active cyclic peptide analog): stimulated these cells | effect on A431 cell growth of peptide mixed with EGF (A431 cells; peptide and EGF mixed, low concentrations): stimulation of cell growth | inhibition of A431 cell growth over the range of concentrations tested (A431 cells; whole concentration range tested): no inhibition | competition for EGF receptor binding relative to any previously reported peptide (EGF receptor [5]): 100 fold | concentration for 50% inhibition of 125I-EGF binding relative to that for unlabeled EGF (EGF receptor [5]): 10 fold

CC[C@H](C)[C@H](NC(=O)[C@H](Cc1ccc(O)cc1)NC(=O)CNC(=O)[C@@H](NC(=O)[C@@H](NC(=O)[C@H](CS)NC(=O)[C@H](CC(N)=O)NC(C)=O)C(C)C)C(C)C)C(=O)NCC(=O)N[C@@H](CCC(=O)O)C(=O)N[C@@H](CCCNC(=N)N)C(=O)N[C@@H](CS)C(=O)N[C@@H](CCC(N)=O)C(=O)N[C@@H](Cc1ccc(O)cc1)C(=O)N[C@@H](CCCNC(=N)N)C(=O)N[C@@H](CC(=O)O)C(=O)N[C@@H](CC(C)C)C(=O)N[C@@H](CCCCN)C(N)=O [Peptide B] (Ac-NCVVGYIGERCQYRDLK-NH2)
biological activity relative to any other EGF peptide analog so far synthesized (EGF receptor [4]): 10 fold | competition for 125I-EGF binding (in words) (EGF receptor [5]): marginal competition

epidermal growth factor (NSDSECPLSHDGYCLHDGVCMYIEALDKYACNCVVGYIGERCQYRDLKWWELR; Epidermal growth factor; UniProt P01133 971-1023, looked up) [EGF, single-chain polypeptide, 53 amino acid residues, three internal disulfide bonds]
effect on A431 cell growth (A431 cells; 0.1 ng/ml): stimulated A431 cell growth | effect on A431 cell growth (A431 cells; 0.1 ng/ml, listed as Native EGF): stimulated growth | effect on A431 cell growth (A431 cells; 10 ng/ml): inhibited | effect on A431 cell growth (A431 cells; 10 ng/ml, listed as Native EGF): inhibited cell growth

CC[C@H](C)[C@@H]1NC(=O)[C@H](Cc2ccccc2)NC(=O)CNC(=O)[C@H](C(C)C)NC(=O)[C@H](C(C)C)NC(=O)[C@@H](NC(=O)[C@H](CC(N)=O)NC(C)=O)CSSC[C@@H](C(=O)N[C@@H](CCC(N)=O)C(=O)N[C@@H](Cc2ccc(O)cc2)C(=O)N[C@@H](CCCNC(=N)N)C(=O)N[C@@H](CC(=O)O)C(=O)N[C@@H](CC(C)C)C(=O)N[C@@H](CCCCN)C(N)=O)NC(=O)[C@H](CCCNC(=N)N)NC(=O)[C@H](CCC(=O)O)NC(=O)CNC1=O [Peptide C] (Ac-NCVVGFIGERCQYRDLK-NH2; disulfide 2-11)
stimulation of kinase activity (EGF receptor [2]; 30 ng/ml peptide): approximately 2 fold | competition for 125I-EGF binding (in words) (EGF receptor [5]): marginal competition
